# Tests used:
# [1] = test system: Klebsiella pneumoniae isolates (n = 101); assay: Broth microdilution MIC, clinical isolate panel; assay type: cell-based; conditions: Klebsiella pneumoniae (n = 101)
# Method: (§1) Comparator antibiotics were supplied by Micromyx, and stock solutions were prepared on the first day of testing using solvents recommended by CLSI (1). Stock solutions of all compounds were made at 40× the final testing concentration and stored at −80° C. prior to testing. Information regarding compound source, catalog and lot number, testing concentrations and drug diluent for the comparators and test agent are detailed below in Table 3.
# (§2) The test organisms evaluated in this study consisted of clinical isolates from the Micromyx Repository and reference isolates from the American Type Culture Collection (ATCC; Manassas, Va.). The clinical isolates were obtained from USA hospitals. Upon initial receipt at Micromyx, the organisms were sub-cultured onto an appropriate agar medium. Following incubation, colonies were harvested from these plates and cell suspensions prepared and frozen at −80° C. with a cryoprotectant. Prior to testing, the isolates were streaked from frozen vials onto Trypticase Soy Agar with 5% sheep blood (Becton Dickenson [BD]; Sparks, Md.; Lot Nos. 7173618, 7166759, 7208688, 72144895, 7228505 and Remel Lenexa, Kans. Lot No. 212574). Plates were incubated at 35° C. overnight.
# (§3) Mueller Hinton II broth (MHB II; BD; Lot Nos. 6258541 and 7143896) was used for MIC testing of aerobic organisms.
# (§4) MIC values were determined using a broth microdilution procedure described by CLSI (1, 3). Automated liquid handlers (Multidrop 384, Labsystems, Helsinki, Finland; Biomek 2000 and Biomek FX, Beckman Coulter, Fullerton Calif.) were used to conduct serial dilutions and liquid transfers.
# (§5) To prepare the drug mother plates, which would provide the serial drug dilutions for the replicate daughter plates, the wells of columns 2-12 of standard 96-well microdilution plates (Costar 3795) were filled with 150 μl of the designated diluent for each row of drug. The test articles and comparator compounds (300 μl at 40× the highest concentration to be tested) were dispensed into the appropriate wells in column 1. The Biomek 2000 was then used to make 2-fold serial dilutions in the mother plates from column 1 through column 11. The wells of Column 12 contained no drug and served as the organism growth control wells for the assay.
# (§6) The daughter plates were loaded with 185 μL per well of MHB II using the Multidrop 384. The daughter plates were completed on the Biomek FX instrument which transferred 5 µL of drug solution from each well of a mother plate to the corresponding well of each daughter plate in a single step. A standardized inoculum of each test organism was prepared per CLSI methods (1). The inoculum for each organism was dispensed into sterile reservoirs divided by length (Beckman Coulter), and the Biomek 2000 was used to inoculate the plates. Daughter plates were placed on the Biomek 2000 work surface in reverse orientation so that inoculation took place from low to high drug concentration.
# (§7) Plates were stacked 3-4 high, covered with a lid on the top plate, placed in plastic bags, and incubated at 35° C. for 16 to 20 hrs. Following incubation, the microplates were removed from the incubator and viewed from the bottom using a plate viewer. […] The MIC was read and recorded as the lowest concentration of drug that inhibited visible growth of the organism.
# (§8) Clinical breakpoints to determine percent resistance within a given organism group were obtained from CLSI (3), with the exception of colistin for K. pneumoniae, Enterobacter spp., and E. coli, which are only available from EUCAST.
# [2] = test system: Escherichia coli isolates (n = 101); assay: Broth microdilution MIC, clinical isolate panel; assay type: cell-based; conditions: Escherichia coli (n = 101)
# Method: as §1, §2, §3, §4, §5, §6, §7, §8
# [3] = test system: Pseudomonas aeruginosa isolates (n = 109); assay: Broth microdilution MIC, clinical isolate panel; assay type: cell-based
# Method: as §1, §2, §3, §4, §5, §6, §7, §8
# [4] = test system: Acinetobacter spp. isolates (n = 104); assay: Broth microdilution MIC, clinical isolate panel; assay type: cell-based; conditions: Acinetobacter spp. (n = 104)
# Method: as §1, §2, §3, §4, §5, §6, §7, §8
# [5] = test system: Enterobacter spp. isolates (n = 102); assay: Broth microdilution MIC, clinical isolate panel; assay type: cell-based, Enterobacter aerogenes and E. cloacae; conditions: Enterobacter spp. (n = 102)
# Method: as §1, §2, §3, §4, §5
# The daughter plates were loaded with 185 μL per well of MHB II using the Multidrop 384. The daughter plates were completed on the Biomek FX instrument which transferred 5 µL of drug solution from each well of a mother plate to the corresponding well of each daughter plate in a single step. […]
# Plates were stacked 3-4 high, covered with a lid on the top plate, placed in plastic bags, and incubated at 35° C. for 16 to 20 hrs. […] The MIC was read and recorded as the lowest concentration of drug that inhibited visible growth of the organism. […]
# [6] = test system: Enterococcus faecalis ATCC 29212 (VSE; QC); assay: Broth microdilution MIC (Table 2); assay type: cell-based; conditions: ATCC29212, read-out: MIC
# Method: (§9) Each peptide was formulated in PBS buffer prior to testing. Peptides of SEQ ID NO:5 and SEQ ID NO:8 were brought up in 100% DMSO with 0.002% polysorbate-80 at 1.28 mg/mL (40× the highest final test concentration of 32 mcg/mL). Final test concentration of DMSO was 2.5% in the assay at the first dilution for those two compounds.
# (§10) Mueller Hinton II broth (MHB II; BD; Lot Nos. 6258541 and 7143896) was used for MIC testing of aerobic organisms. 0.002% polysorbate 80 (P80) was added to the test medium.
# as §4
# as §5, with “serial peptide” for “serial drug”, “of peptide.” for “of drug.”
# as §6, with “5 uL” for “5 µL”, “of peptide” for “of drug”, “CLSI methods.” for “CLSI methods (1).”, “concentration. The plates were then inoculated with 10 μL of the inoculum resulting in a final cell density of approximately 5×10^5 CFU/mL, per well.” for “concentration.”
# (§11) Plates were stacked 3-4 high, covered with a lid on the top plate, placed in plastic bags, and incubated at 35° C. for 16 to 20 hrs. Following incubation, the microplates were removed from the incubator and viewed from the bottom using a plate viewer. […] The MIC was read and recorded as the lowest concentration of peptide that inhibited visible growth of the organism.
# [7] = test system: Enterococcus faecalis ATCC 700802 (V583 VRE); assay: Broth microdilution MIC (Table 2); assay type: cell-based; conditions: read-out: MIC
# Method: as §9, §10, §4
# as §5, with “serial peptide” for “serial drug”, “of peptide.” for “of drug.”
# as §6, with “5 uL” for “5 µL”, “of peptide” for “of drug”, “CLSI methods.” for “CLSI methods (1).”, “concentration. The plates were then inoculated with 10 μL of the inoculum resulting in a final cell density of approximately 5×10^5 CFU/mL, per well.” for “concentration.”
# as §11
# [8] = test system: Staphylococcus aureus ATCC 29213 (MSSA; QC); assay: Broth microdilution MIC (Table 2); assay type: cell-based; conditions: read-out: MIC
# Method: as §9, §10, §4
# as §5, with “serial peptide” for “serial drug”, “of peptide.” for “of drug.”
# as §6, with “5 uL” for “5 µL”, “of peptide” for “of drug”, “CLSI methods.” for “CLSI methods (1).”, “concentration. The plates were then inoculated with 10 μL of the inoculum resulting in a final cell density of approximately 5×10^5 CFU/mL, per well.” for “concentration.”
# as §11
# [9] = test system: Acinetobacter baumannii ATCC BAA-1797 (MDR); assay: Broth microdilution MIC (Table 2); assay type: cell-based; conditions: ATCCBAA1797, read-out: MIC
# Method: as §9, §10, §4
# as §5, with “serial peptide” for “serial drug”, “of peptide.” for “of drug.”
# as §6, with “5 uL” for “5 µL”, “of peptide” for “of drug”, “CLSI methods.” for “CLSI methods (1).”, “concentration. The plates were then inoculated with 10 μL of the inoculum resulting in a final cell density of approximately 5×10^5 CFU/mL, per well.” for “concentration.”
# as §11
# [10] = test system: Escherichia coli ATCC 35218 (ESBL); assay: Broth microdilution MIC (Table 2); assay type: cell-based; conditions: ATCC35218
# Method: as §9, §10, §4
# as §5, with “serial peptide” for “serial drug”, “of peptide.” for “of drug.”
# as §6, with “5 uL” for “5 µL”, “of peptide” for “of drug”, “CLSI methods.” for “CLSI methods (1).”, “concentration. The plates were then inoculated with 10 μL of the inoculum resulting in a final cell density of approximately 5×10^5 CFU/mL, per well.” for “concentration.”
# as §11
# [11] = test system: Escherichia coli ATCC 25922 (QC); assay: Broth microdilution MIC (Table 2); assay type: cell-based; conditions: ATCC25922
# Method: as §9, §10, §4
# as §5, with “serial peptide” for “serial drug”, “of peptide.” for “of drug.”
# as §6, with “5 uL” for “5 µL”, “of peptide” for “of drug”, “CLSI methods.” for “CLSI methods (1).”, “concentration. The plates were then inoculated with 10 μL of the inoculum resulting in a final cell density of approximately 5×10^5 CFU/mL, per well.” for “concentration.”
# as §11
# [12] = test system: Acinetobacter baumannii ATCC 19606 (non-MDR); assay: Broth microdilution MIC (Table 2); assay type: cell-based; conditions: ATCC19606, read-out: MIC
# Method: as §9, §10, §4
# as §5, with “serial peptide” for “serial drug”, “of peptide.” for “of drug.”
# as §6, with “5 uL” for “5 µL”, “of peptide” for “of drug”, “CLSI methods.” for “CLSI methods (1).”, “concentration. The plates were then inoculated with 10 μL of the inoculum resulting in a final cell density of approximately 5×10^5 CFU/mL, per well.” for “concentration.”
# as §11
# [13] = test system: Pseudomonas aeruginosa ATCC 27853 (non-MDR; QC); assay: Broth microdilution MIC (Table 2); assay type: cell-based; conditions: ATCC27853, read-out: MIC
# Method: as §9, §10, §4
# as §5, with “serial peptide” for “serial drug”, “of peptide.” for “of drug.”
# as §6, with “5 uL” for “5 µL”, “of peptide” for “of drug”, “CLSI methods.” for “CLSI methods (1).”, “concentration. The plates were then inoculated with 10 μL of the inoculum resulting in a final cell density of approximately 5×10^5 CFU/mL, per well.” for “concentration.”
# as §11
# [14] = test system: Pseudomonas aeruginosa ATCC BAA-2109 (MDR); assay: Broth microdilution MIC (Table 2); assay type: cell-based; conditions: ATCCBAA2109
# Method: as §9, §10, §4
# as §5, with “serial peptide” for “serial drug”, “of peptide.” for “of drug.”
# as §6, with “5 uL” for “5 µL”, “of peptide” for “of drug”, “CLSI methods.” for “CLSI methods (1).”, “concentration. The plates were then inoculated with 10 μL of the inoculum resulting in a final cell density of approximately 5×10^5 CFU/mL, per well.” for “concentration.”
# as §11
# [15] = test system: Streptococcus pyogenes ATCC 49399; assay: Broth microdilution MIC (Table 2); assay type: cell-based; conditions: ATCC49399, read-out: MIC
# Method: as §9, §10, §4
# as §5, with “serial peptide” for “serial drug”, “of peptide.” for “of drug.”
# as §6, with “5 uL” for “5 µL”, “of peptide” for “of drug”, “CLSI methods.” for “CLSI methods (1).”, “concentration. The plates were then inoculated with 10 μL of the inoculum resulting in a final cell density of approximately 5×10^5 CFU/mL, per well.” for “concentration.”
# as §11
# [16] = test system: Streptococcus agalactiae ATCC 13813; assay: Broth microdilution MIC (Table 2); assay type: cell-based; conditions: ATCC13813, read-out: MIC
# Method: as §9, §10, §4
# as §5, with “serial peptide” for “serial drug”, “of peptide.” for “of drug.”
# as §6, with “5 uL” for “5 µL”, “of peptide” for “of drug”, “CLSI methods.” for “CLSI methods (1).”, “concentration. The plates were then inoculated with 10 μL of the inoculum resulting in a final cell density of approximately 5×10^5 CFU/mL, per well.” for “concentration.”
# as §11
structure (smiles),measurement,setting,value
C[C@@H](O)[C@H]1C(=O)N2C(C(=O)O)=C(S[C@@H]3CN[C@H](C(=O)N(C)C)C3)[C@H](C)[C@H]12 [Meropenem],"% R (percent of isolates resistant, clinical breakpoints)",[1],Fifty percent
same,MIC50,[1],4 mg/L
same,MIC90,[1],> 8 mg/L
same,MIC,[1]; read-out: Mode (MIC),> 8 mg/L
same,"% R (percent of isolates resistant, clinical breakpoints)",[2],1%
same,MIC50,[2],0.015 mg/L
same,MIC90,[2],0.03 mg/L
same,MIC,[2]; read-out: Mode (MIC),0.015 mg/L
same,MIC50,[3]; Pseudomonas aeruginosa,0.5 mg/L
same,MIC90,[3]; Pseudomonas aeruginosa,> 8 mg/L
same,"% R (percent of isolates resistant, clinical breakpoints)",[3]; Pseudomonas aeruginosa (n = 109),20%
same,MIC,"[3]; Pseudomonas aeruginosa, read-out: Mode (MIC)",0.25 mg/L
same,MIC50,[4],> 8 mg/L
same,MIC90,[4],> 8 mg/L
same,MIC,[4]; read-out: Mode (MIC),> 8 mg/L
same,"% R (percent of isolates resistant, clinical breakpoints)",[5],3.9%
same,MIC,[6],4 mg/L
same,MIC,[7],4 mg/L
same,MIC,[8],0.12 mg/L
same,MIC,[9],0.25 mg/L
same,MIC,[10],0.015 mg/L
same,MIC,[11],0.015 mg/L
same,MIC,[12],0.5 mg/L
same,MIC,[13],0.25 mg/L
same,MIC,[14],0.015 mg/L
same,MIC,[15],≤ 0.004 mg/L
same,MIC,[16],0.008 mg/L
